Results on three compounds are retold here after patent US11608328B2, “Chemical probes to identify anti-mycobacterial MmpL3 inhibitors” (Creighton University, priority 2019, dated 2023).

Each structure is given as a SMILES string.

In this test the target is MmpL3tb(G253E) (Mycobacterium tuberculosis, UniProt P9WJV5, G253E). In kind it is binding.
`Cc1cc(C)c2cc(C(=O)NC3CCCCCCC3)[nH]c2c1` [North 21]: the “BLI binding to MmpL3tb(G253E) versus WT” value was “no binding to MmpL3tb(G253E) was detected”. For `C[C@@H]1[C@H]2C[C@@H](C[C@H]1NC(=O)c1cc3ccccc3[nH]1)C2(C)C` [North 4] the value was “unaltered by the G253E mutation”; for `CC(C)=CCC/C(C)=C/CNCCNC1C2CC3CC(C2)CC1C3` (stereo not drawn) [SQ109], “no binding to MmpL3tb(G253E) was detected”.
